Source: patent publication US4316894A, “Antibiotic SF-1130-x3 3 substance and production and use thereof” (Meiji Seika Kaisha, Ltd., priority 1979, dated 1982)

Legend:
α-glucosidase = assay: Determination of the activity of inhibiting α-glucosidase; type: biochemical, pig; details: measured in the same way as above; read-out: ID50 values (comparison substances, measured in the same way as above)
Text: The compound of this invention is useful for highly inhibiting the enzymatic reaction of glucosidase and particularly for inhibiting the enzymatic reaction of α-glucosidase as well as the enzymatic reaction of saccharase. Such the inhibitory activity of the compound of this invention may be estimated according to the following procedure with the α-glucosidase prepared from ileum mucosa of pig as disclosed in the literature "Acta Chem. Scand." vol. 12, page 1997 (1958).
(1) Determination of the activity of inhibiting α-glucosidase. There are prepared the following four solutions:
Solution A: A solution of the enzyme (α-glucosidase) having appropriately been diluted to a desired enzyme concentration with 0.1 M maleate buffered solution (pH 6.0)
Solution B: 0.1 M maleate buffered solution (pH 6.0)
Solution C: An aqueous solution of 0.014 M p-nitrophenyl-α-D-glycoside (as the substrate) in water
Solution D: An aqueous solution of 0.1 M sodium carbonate in water […]
In the above assay, degree (%) of inhibition for the inhibitor sample to the α-glucosidase is calculated according to the following equation: […]

[1] = Suppression of elevation of blood sugar level in mice given starch or sucrose orally; type: in vivo, ICR-strain male mice; details: test drug 10 mg/kg oral (dose of the x1 + x2 mixture not stated), 30 minutes after administration, ICR male mice, six per group
Procedure: The test was carried out by the following procedure: Test animal was ICR-strain male mice (six mice per group, weighing 25 g in average) which had been abstained from water for 20 hours. 1 g/kg of starch or 2.5 g/kg of sucrose was orally given to the mice. At the same time, 10 mg/kg of the compound of this invention or 10 mg/kg of deoxynojirimycin as a comparative drug was orally administered to these mice. 30 minutes after the administration, the glucose level in blood was measured.

Row | SMILES | IC50 (α-glucosidase) | Blood sugar level, groups receiving starch ([1]; starch 1 g/kg oral) | Blood sugar level, groups receiving sucrose ([1]; sucrose 2.5 g/kg oral)
1 | OC[C@H]1NC(O)[C@H](O)[C@@H](O)[C@@H]1O (stereo partly drawn) [nojirimycin] | 360 µM |  | 
2 | OC[C@H]1NC[C@H](O)[C@@H](O)[C@@H]1O [Deoxynojirimycin] |  | 101 ± 22.9 mg/dL | 93 ± 15.4 mg/dL
